# Experimental data from patent US7632829B2, “Diazepan derivatives” (Hoffmann-La Roche Inc., priority 2006, dated 2009).
# Target: T1, human chemokine receptor 2 isoform B (Homo sapiens, UniProt P41597)
# T1 construct: host or cells: CHOK1-CCR2B-A5 (CHO-K1)
# T1 sequence (P41597 1-360 isoform P41597-2): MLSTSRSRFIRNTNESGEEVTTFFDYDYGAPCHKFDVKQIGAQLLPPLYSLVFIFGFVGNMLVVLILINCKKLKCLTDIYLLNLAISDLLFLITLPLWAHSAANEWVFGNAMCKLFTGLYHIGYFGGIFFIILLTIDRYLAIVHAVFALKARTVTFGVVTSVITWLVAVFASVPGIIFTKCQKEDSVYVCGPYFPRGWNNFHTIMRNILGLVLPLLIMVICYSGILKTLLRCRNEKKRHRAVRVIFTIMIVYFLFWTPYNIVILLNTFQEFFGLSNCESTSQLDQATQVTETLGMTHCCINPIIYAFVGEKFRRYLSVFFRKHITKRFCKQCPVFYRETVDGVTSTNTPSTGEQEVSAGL
# Experiment: Calcium mobilization assay (FLIPR, CHOK1-CCR2B-A5 cells, 20 nM MCP-1)
# Format: cell-based
# Conditions: Ca mobilisation assay, CCR2, antagonist activity vs 20 nM MCP-1
# Experimental: CHOK1-CCR2B-A5 cells (from Euroscreen) stably overexpressing the human chemokine receptor 2 isoform B were cultured in Nutrient Hams F12 medium supplemented with 5% FBS, 100 U/ml penicillin, 100 μg/ml streptomycin, 400 μg/ml G418 and 5 μg/ml puromycin.
# For the assay cells were grown overnight in 384-well black clear flat bottom polystyrene plates (Costar) at 37° C. at 5% CO2. After washing with DMEM, 20 mM Hepes, 2.5 mM probenecid, 0.1% BSA (DMEM assay buffer) cells were loaded with 4 μM Fluo-4 in the same DMEM assay buffer for 2 hours at 30° C. Excess dye was removed and cells were washed with DMEM assay buffer. 384-well compound plates were prepared with DMEM assay buffer/0.5% DMSO with or without various concentrations of test compounds. Usually compounds were tested for agonist and antagonist activity.
# Test compounds were added to the assay plate and agonist activity was monitored as fluorescence for 80 seconds with a FLIPR (488 nm excitation; 510-570 nm emission; Molecular Devices). After 20-30 min. of incubation at 30° C., 20 nM MCP-1 (R&D; Roche) was added and fluorescence was monitored again for 80 seconds. Increases in intracellular calcium are reported as maximum fluorescence after agonist exposure minus basal fluorescence before exposure. Antagonist activity is indicated as inhibitor concentration required for 50% inhibition of specific calcium increases.
row,Molecule,IC50
1,O=C(/C=C/c1ccc(Cl)c(Cl)c1)N1CCC(=O)N(CCCCN2CC(O)CCC2CO)CC1 (racemic) [Example 476],18 nM
2,"O=C(/C=C/c1ccc(Cl)c(Cl)c1)N1CCC(=O)N(CCN2CCC(O)(c3ccccc3)CC2)CC1 [Example 96, 1-[(E)-3-(3,4-Dichloro-phenyl)-acryloyl]-4-[3-(4-hydroxy-4-phenyl-piperidin-1-yl)-ethyl]-[1,4]diazepan-5-one]",1140 nM
3,CC1(CO)CCCN1CCCN1CCN(C(=O)/C=C/c2ccc(Cl)c(Cl)c2)CCC1=O (racemic) [Example 255],561 nM
4,COCC1CCCN(CC(O)CN2CCN(C(=O)/C=C/c3ccc(Cl)c(Cl)c3)CCC2=O)C1 (racemic) [Example 293],1120 nM
5,O=C(/C=C/c1ccc(F)c(Cl)c1)N1CCC(=O)N(CCCN2CCC3(CC3)C(O)C2)CC1 (stereo not shown) [Example 192],15 nM
6,CC(=O)NC1CCCN(CCCCN2CCN(C(=O)/C=C/c3ccc(Cl)c(Cl)c3)CCC2=O)C1 (racemic) [Example 466],389 nM
7,COCC1C(O)CCCN1CCCCN1CCN(C(=O)/C=C/c2ccc(Cl)c(Cl)c2)CCC1=O (racemic) [Example 486],205 nM
8,O=C(/C=C/c1ccc(F)c(Cl)c1)N1CCC(=O)N(CCCCN2CCCC(CO)C2)CC1 (racemic) [Example 385],310 nM
9,"O=C(/C=C/c1ccc(Cl)c(F)c1)N1CCC(=O)N(CCCN2CCCCC2)CC1 [Example 13, 1-[(E)-3-(4-Chloro-3-fluoro-phenyl)-acryloyl]-4-(3-piperidin-1-yl-propyl)-[1,4]diazepan-5-one]",727 nM
10,"4-(3-{4-[(E)-3-(3,4-Dichloro-phenyl)-acryloyl]-7-oxo-[1,4]diazepan-1-yl}-propylamino)-cyclohexanecarboxylic acid ethyl ester [Example 67]",241 nM
11,O=C(/C=C/c1ccc(Cl)c(Cl)c1)N1CCC(=O)N(CCC(O)CN2CCCCC2CO)CC1 (racemic) [Example 374],580 nM
12,CC1CCN(CC(O)CN2CCN(C(=O)/C=C/c3ccc(Cl)c(Cl)c3)CCC2=O)CC1O (racemic) [Example 280],21 nM
13,CC1(C)CCN(CCCN2CCN(C(=O)/C=C/c3ccc(F)c(Cl)c3)CCC2=O)CC1O (racemic) [Example 223],13 nM
14,"O=C(/C=C/c1ccc(Cl)c(Cl)c1)N1CCC(=O)N(CCNC2CCOCC2)CC1 [Example 103, 1-[(E)-3-(3,4-Dichloro-phenyl)-acryloyl]-4-[3-(tetrahydro-pyran-4-ylamino)-ethyl]-[1,4]diazepan-5-one]",388 nM
15,CC1(CO)CCCN(CCCCN2CCN(C(=O)/C=C/c3ccc(Cl)c(Cl)c3)CCC2=O)C1 (racemic) [Example 445],354 nM
16,"O=C(C=Cc1ccc(Cl)c(Cl)c1)N1CCC(=O)N(CCCN2CCC(O)C(F)C2)CC1 (mixture of isomers) [Example 231, (rac,trans)-1-[(E)-3-(3,4-Dichloro-phenyl)-acryloyl]-4-[3-(3-fluoro-4-hydroxy-piperidin-1-yl)-propyl]-[1,4]diazepan-5-one]",218 nM
17,COC1CCCN(CCCCN2CCN(C(=O)/C=C/c3ccc(Cl)c(Cl)c3)CCC2=O)C1 (racemic) [Example 435],281 nM
18,"O=C(/C=C/c1ccc(Cl)c(Cl)c1)N1CCC(=O)N(CCCN2CCCCC2)CC1 [Example 4, 1-[(E)-3-(3,4-Dichloro-phenyl)-acryloyl]-4-(3-piperidin-1-yl-propyl)-[1,4]diazepan-5-one]",150 nM
19,O=C(/C=C/c1ccc(Cl)c(Cl)c1)N1CCC(=O)N(CCCCN2CCC(O)CC2)CC1 [Example 424],119 nM
20,CC1(CO)CCCCN1CCCN1CCN(C(=O)/C=C/c2ccc(Cl)c(Cl)c2)CCC1=O (racemic) [Example 250],812 nM
21,"C[C@@H]1C[C@H](O)CN(C[C@H](O)CN2CCN(C(=O)/C=C/c3ccc(Cl)c(Cl)c3)CCC2=O)C1 (mixture of isomers) [Example 335, 1-[(E)-3-(3,4-Dichloro-phenyl)-acryloyl]-4-[(S)-2-hydroxy-3-(cis-3-hydroxy-5-methyl-piperidin-1-yl)-propyl]-[1,4]diazepan-5-one]",13 nM
22,"CNC(=O)C1CCN(CCCN2CCN(C(=O)/C=C/c3ccc(Cl)c(Cl)c3)CCC2=O)CC1 [Example 86, 1-(3-{4-[(E)-3-(3,4-Dichloro-phenyl)-acryloyl]-7-oxo-[1,4]diazepan-1-yl}-propyl)-piperidine-4-carboxylic acid methylamide]",1080 nM

row,Molecule,IC50
1,"CC1(C)CCN(C[C@H](O)CN2CCN(C(=O)/C=C/c3ccc(Cl)c(Cl)c3)CCC2=O)CC1O (stereo partly drawn) [Example 334, 1-[(E)-3-(3,4-Dichloro-phenyl)-acryloyl]-4-[(S)-2-hydroxy-3-(3-hydroxy-4,4-dimethyl-piperidin-1-yl)-propyl]-[1,4]diazepan-5-one]",4 nM
2,"4-[3-(Cyclohexy-methyl-amino)-ethyl]-1-[(E)-3-(3,4-dichloro-phenyl)-acryloyl]-[1,4]diazepan-5-one [Example 111]",335 nM
3,COC1CCC(CO)N(CCCCN2CCN(C(=O)/C=C/c3ccc(Cl)c(Cl)c3)CCC2=O)C1 (racemic) [Example 477],313 nM
4,"O=C(/C=C/c1ccc(Cl)c(Cl)c1)N1CCC(=O)N(CCCN2CCCC2)CC1 [Example 46, 1-[(E)-3-(3,4-Dichloro-phenyl)-acryloyl]-4-(3-pyrrolidin-1-yl-propyl)-[1,4]diazepan-5-one]",333 nM
5,COC(=O)NC1CCCN(CCCN2CCN(C(=O)/C=C/c3ccc(Cl)c(Cl)c3)CCC2=O)C1 (racemic) [Example 256],1070 nM
6,COC(=O)NC1CCN(CCCCN2CCN(C(=O)/C=C/c3ccc(Cl)c(Cl)c3)CCC2=O)CC1 [Example 441],22 nM
7,COCC1CCN(CC(O)CCN2CCN(C(=O)/C=C/c3ccc(Cl)c(Cl)c3)CCC2=O)CC1 (racemic) [Example 360],179 nM
8,"O=C(/C=C/c1ccc(Cl)c(Cl)c1)N1CCC(=O)N(CC[C@@H](O)CN2CCCCC2)CC1 [Example 172, 1-[(E)-3-(3,4-Dichloro-phenyl)-acryloyl]-4-((R)-3-hydroxy-4-piperidin-1-yl-butyl)-[1,4]diazepan-5-one]",105 nM
9,COCC1(C)CCCN(CCCN2CCN(C(=O)/C=C/c3ccc(Cl)c(Cl)c3)CCC2=O)C1 (racemic) [Example 249],1250 nM
10,CC1(O)CCCN(CCCN2CCN(C(=O)/C=C/c3ccc(F)c(Cl)c3)CCC2=O)C1 (racemic) [Example 205],325 nM
11,O=C(/C=C/c1ccc(Cl)c(Cl)c1)N1CCC(=O)N(CCCCN2CCN(C3CCCC3)CC2)CC1 [Example 438],369 nM
12,O=C(/C=C/c1ccc(F)c(Cl)c1)N1CCC(=O)N(CCCN2CCC(CO)CC2)CC1 [Example 212],437 nM
13,"O=C(/C=C/c1ccc(F)c(F)c1)N1CCC(=O)N(CCCN2CCCCC2)CC1 [Example 7, 1-[(E)-3-(3,4-Difluoro-phenyl)-acryloyl]-4-(3-piperidin-1-yl-propyl)-[1,4]diazepan-5-one]",1290 nM
14,CC1(CO)CCCCN1CCCCN1CCN(C(=O)/C=C/c2ccc(Cl)c(Cl)c2)CCC1=O (racemic) [Example 447],92 nM
15,CC1(CO)CCCN(CCCN2CCN(C(=O)/C=C/c3ccc(Cl)c(Cl)c3)CCC2=O)C1 (racemic) [Example 248],226 nM
16,CCN(CC)C1CCN(CCN2CCN(C(=O)/C=C/c3ccc(Cl)c(Cl)c3)CCC2=O)C1 (racemic) [Example 347],864 nM
17,C[C@@H]1CN(CCCN2CCN(C(=O)/C=C/c3ccc(Cl)c(Cl)c3)CCC2=O)CC[C@@H]1O (racemic) [Example 253],132 nM
18,O=C(/C=C/c1ccc(Cl)c(Cl)c1)N1CCC(=O)N(CCCN2CC(O)CCC2CO)CC1 (racemic) [Example 273],313 nM
19,"O=C(/C=C/c1ccc(F)c(Cl)c1)N1CCC(=O)N(C[C@@H](O)CN2CC[C@H](CO)[C@H](O)C2)CC1 (mixture of isomers) [Example 337, 1-[(E)-3-(3-Chloro-4-fluoro-phenyl)-acryloyl]-4-[(S)-2-hydroxy-3-(cis-3-hydroxy-4-hydroxymethyl-piperidin-1-yl)-propyl]-[1,4]diazepan-5-one]",71 nM
20,"O=C(C=Cc1ccc(Cl)c(Cl)c1)N1CCC(=O)N(CCCN2CCC(CO)C(O)C2)CC1 (mixture of isomers) [Example 266, (rac,cis)-1-[(E)-3-(3,4-Dichloro-phenyl)-acryloyl]-4-[3-(3-hydroxy-4-hydroxymethyl-piperidin-1-yl)-propyl]-[1,4]diazepan-5-one]",77 nM
21,"CN(CCCN1CCN(C(=O)/C=C/c2ccc(Cl)c(Cl)c2)CCC1=O)C1CCCCC1 [Example 39, 4-[3-(Cyclohexyl-methyl-amino)-propyl]-1-[(E)-3-(3,4-dichloro-phenyl)-acryloyl]-[1,4] diazepan-5-one]",538 nM
